Species: Rattus norvegicus
Test: DrugMatrix - Regimen: Daily Repeat
Type: toxicity, organism-based, Sprague-Dawley
Parameters: regimen Daily Repeat, gender Male, age 6-8 weeks
Conditions: in vivo, po, route oral GAVAGE, […]; for ALKALINE PHOSPHATASE / ASPARTATE AMINOTRANSFERASE / BLOOD UREA NITROGEN / CARBON DIOXIDE / CHLORIDE / CHOLESTEROL / CREATINE PHOSPHOKINASE / CREATININE / GLUCOSE / LACTATE DEHYDROGENASE / LIPASE / PHOSPHORUS / POTASSIUM / SODIUM / TOTAL BILIRUBIN / TOTAL PROTEIN / URIC ACID / ALANINE AMINOTRANSFERASE / ALBUMIN: tissue Plasma; for BASOPHIL / EOSINOPHIL / ERYTHROCYTE COUNT / HEMATOCRIT / HEMOGLOBIN / LEUKOCYTE COUNT / LYMPHOCYTE / MEAN CORPUSCULAR HEMOGLOBIN / MEAN CORPUSCULAR HEMOGLOBIN CONCENTRATION / MEAN CORPUSCULAR VOLUME / MONOCYTE / NEUTROPHIL / PLATELET COUNT / ABSOLUTE BASOPHIL / ABSOLUTE EOSINOPHIL / ABSOLUTE LYMPHOCYTE / ABSOLUTE MONOCYTE / ABSOLUTE SEGMENTED NEUTROPHIL / NUCLEATED RED BLOOD CELLS: tissue Blood
[1] = 23 mg/kg, 120 h, dose level Low, time 5 day
[2] = 23 mg/kg, dose level High, time 28 day
[3] = 64 mg/kg, 72 h, dose level M1, time 3 day
[4] = 64 mg/kg, 120 h, dose level M1, time 5 day

SMILES: CC1=C(CC(=O)O)c2cc(F)ccc2/C1=C\c1ccc([S+](C)[O-])cc1 (stereo unspecified)
- ALKALINE PHOSPHATASE [1]: 330 u/L
- ASPARTATE AMINOTRANSFERASE [1]: 79.33 u/L
- BLOOD UREA NITROGEN [1]: 14.33 mg/dL
- CARBON DIOXIDE [1]: 29.33 mmol/L
- CHLORIDE [1]: 100.67 MEQ/L
- CHOLESTEROL [1]: 85 mg/dL
- CREATINE PHOSPHOKINASE [1]: 210.67 u/L
- CREATININE [1]: 0.2 mg/dL
- GLUCOSE [1]: 156 mg/dL
- LACTATE DEHYDROGENASE [1]: 80 u/L
- LIPASE [1]: 11.67 u/L
- PHOSPHORUS [1]: 10.87 mg/dL
- POTASSIUM [1]: 5.36 MEQ/L
- SODIUM [1]: 146.07 MEQ/L
- TOTAL BILIRUBIN [1]: 0.17 mg/dL
- TOTAL PROTEIN [1]: 6.1 G/DL
- URIC ACID [1]: 0.77 mg/dL
- BASOPHIL [2]: 0.35%
- EOSINOPHIL [2]: 0.51%
- ERYTHROCYTE COUNT [2]: 8.35 x10E6/uL
- HEMATOCRIT [2]: 50.37%
- HEMOGLOBIN [2]: 16.23 G/DL
- LEUKOCYTE COUNT [2]: 13.2 x10E3/uL
- LYMPHOCYTE [2]: 85.99%
- MEAN CORPUSCULAR HEMOGLOBIN [2]: 19.47 pg
- MEAN CORPUSCULAR HEMOGLOBIN CONCENTRATION [2]: 32.25 G/DL
- MEAN CORPUSCULAR VOLUME [2]: 60.4 fL
- MONOCYTE [2]: 1.36%
- NEUTROPHIL [2]: 10.23%
- PLATELET COUNT [2]: 1228.2 x10E3/uL
- ALANINE AMINOTRANSFERASE [2]: 29 u/L
- ALBUMIN [2]: 3.94 G/DL
- ALKALINE PHOSPHATASE [2]: 227.1 u/L
- ASPARTATE AMINOTRANSFERASE [2]: 60.9 u/L
- BLOOD UREA NITROGEN [2]: 12.3 mg/dL
- CHLORIDE [2]: 106.6 MEQ/L
- CHOLESTEROL [2]: 55 mg/dL
- CREATINE PHOSPHOKINASE [2]: 162.4 u/L
- CREATININE [2]: 0.52 mg/dL
- GLUCOSE [2]: 134.2 mg/dL
- PHOSPHORUS [2]: 11.59 mg/dL
- POTASSIUM [2]: 6.38 MEQ/L
- SODIUM [2]: 153.3 MEQ/L
- TOTAL BILIRUBIN [2]: 0.22 mg/dL
- TOTAL PROTEIN [2]: 6.6 G/DL
- ABSOLUTE BASOPHIL [3]: 0 CELLS/uL
- ABSOLUTE EOSINOPHIL [3]: 0 CELLS/uL
- ABSOLUTE LYMPHOCYTE [3]: 23014.33 CELLS/uL
- ABSOLUTE MONOCYTE [3]: 921.67 CELLS/uL
- ABSOLUTE SEGMENTED NEUTROPHIL [3]: 4264 CELLS/uL
- BASOPHIL [3]: 0%
- EOSINOPHIL [3]: 0%
- ERYTHROCYTE COUNT [3]: 5.01 x10E6/uL
- HEMATOCRIT [3]: 31.37%
- HEMOGLOBIN [3]: 12.4 G/DL
- LEUKOCYTE COUNT [3]: 28.2 x10E3/uL
- LYMPHOCYTE [3]: 80.67%
- MEAN CORPUSCULAR HEMOGLOBIN [3]: 24.8 pg
- MEAN CORPUSCULAR HEMOGLOBIN CONCENTRATION [3]: 39.53 G/DL
- MEAN CORPUSCULAR VOLUME [3]: 62.6 fL
- MONOCYTE [3]: 3.33%
- NEUTROPHIL [3]: 16%
- NUCLEATED RED BLOOD CELLS [3]: 0 /100WBC
- PLATELET COUNT [3]: 1053 x10E3/uL
- ALANINE AMINOTRANSFERASE [3]: 55.67 u/L
- ALBUMIN [3]: 3.33 G/DL
- ALKALINE PHOSPHATASE [3]: 252 u/L
- ASPARTATE AMINOTRANSFERASE [3]: 68 u/L
- BLOOD UREA NITROGEN [3]: 9 mg/dL
- CARBON DIOXIDE [3]: 22.33 mmol/L
- CHLORIDE [3]: 105 MEQ/L
- CHOLESTEROL [3]: 84.33 mg/dL
- CREATINE PHOSPHOKINASE [3]: 173.33 u/L
- CREATININE [3]: 0.16 mg/dL
- GLUCOSE [3]: 162.67 mg/dL
- LACTATE DEHYDROGENASE [3]: 160.33 u/L
- LIPASE [3]: 10.33 u/L
- PHOSPHORUS [3]: 9.7 mg/dL
- POTASSIUM [3]: 6.43 MEQ/L
- SODIUM [3]: 144.3 MEQ/L
- TOTAL BILIRUBIN [3]: 0.17 mg/dL
- TOTAL PROTEIN [3]: 5.17 G/DL
- URIC ACID [3]: 1.37 mg/dL
- ABSOLUTE BASOPHIL [4]: 0 CELLS/uL
- ABSOLUTE EOSINOPHIL [4]: 0 CELLS/uL
- ABSOLUTE LYMPHOCYTE [4]: 11762.67 CELLS/uL
- ABSOLUTE MONOCYTE [4]: 305.67 CELLS/uL
- ABSOLUTE SEGMENTED NEUTROPHIL [4]: 2898.33 CELLS/uL
- BASOPHIL [4]: 0%
- EOSINOPHIL [4]: 0%
- ERYTHROCYTE COUNT [4]: 4.62 x10E6/uL
- HEMATOCRIT [4]: 30.03%
- HEMOGLOBIN [4]: 11.8 G/DL
- LEUKOCYTE COUNT [4]: 14.97 x10E3/uL
- LYMPHOCYTE [4]: 78.67%
- MEAN CORPUSCULAR HEMOGLOBIN [4]: 25.5 pg
- MEAN CORPUSCULAR HEMOGLOBIN CONCENTRATION [4]: 39.3 G/DL
- MEAN CORPUSCULAR VOLUME [4]: 64.87 fL
- MONOCYTE [4]: 2%
- NEUTROPHIL [4]: 19.33%
- NUCLEATED RED BLOOD CELLS [4]: 0 /100WBC
- PLATELET COUNT [4]: 1198 x10E3/uL
- ALANINE AMINOTRANSFERASE [4]: 48.67 u/L
- ALBUMIN [4]: 3.57 G/DL
- ALKALINE PHOSPHATASE [4]: 225.67 u/L
- ASPARTATE AMINOTRANSFERASE [4]: 64.67 u/L
- BLOOD UREA NITROGEN [4]: 11 mg/dL
- CARBON DIOXIDE [4]: 31.67 mmol/L
- CHLORIDE [4]: 101.33 MEQ/L
- CHOLESTEROL [4]: 88.33 mg/dL
- CREATINE PHOSPHOKINASE [4]: 237.33 u/L
- CREATININE [4]: 0.18 mg/dL
- GLUCOSE [4]: 174.67 mg/dL
- LACTATE DEHYDROGENASE [4]: 137.33 u/L
- LIPASE [4]: 10.67 u/L
- PHOSPHORUS [4]: 10.57 mg/dL
- POTASSIUM [4]: 5.08 MEQ/L
- SODIUM [4]: 146.77 MEQ/L
- TOTAL BILIRUBIN [4]: 0.13 mg/dL
- TOTAL PROTEIN [4]: 5.57 G/DL
- URIC ACID [4]: 0.5 mg/dL
